{"source": "paper PMC6801405", "about": "“Discovery of 3-Arylquinoxaline Derivatives as Potential Anti-Dengue Virus Agents” (International Journal of Molecular Sciences, 2019)", "key": {"DENV2": {"tested_on": "DENV2", "test": "microbe, parasite or virus in culture", "assay_type": "cell-based, dengue virus", "description": "Anti-DENV activities were determined by firefly luciferase activity."}, "DENV [1]": {"tested_on": "DENV", "test": "DENV protein synthesis by Western blotting in Huh-7 cells", "assay_type": "cell-based, dengue virus", "settings": "0.5, 1, 2.5 and 5 μM, three days", "procedure": "To further confirm the anti-DENV effect of compound 19a, we treated compound 19a at indicated concentrations in Huh-7 cells for three days.\nHuh-7 cells were seeded in 24-well plates at a density of 5 × 10^4 cells per well overnight and treated with indicated reagent at proper concentrations for three days. Cells were washed with cold phosphate-buffered saline (PBS) and lysed by radioimmunoprecipitation assay (RIPA) lysis buffer (50 mM Tris-HCl, pH 7.5, 150 mM NaCl, 1% Nonidet P-40, 2 mM ethylenediaminetetraacetic acid (EDTA), 1 mM ethylene glycol bis(2-aminoethyl)tetraacetic acid (EGTA), 1 mM NaVO3, 10 mM NaF, 1 mM dithiothreitol (DTT), 1 mM phenylmethylsulfonyl fluoride (PMSF), 25 μg/mL aprotinin, and 25 μg/mL leupeptin) and stored at −20 °C. The protein concentration was determined by the Bradford method. Then, 10-μg protein samples were separated by 10% SDS-PAGE and transferred onto a polyvinylidene fluoride (PVDF) membrane. The membrane was blocked with 5% non-fat dried milk and incubated with specific antibodies against GAPDH (1:10000, Genetex, Irvine, CA, USA) and COX-2 (1:1000; Cayman Chemical, Ann Arbor, ML, USA). […] The blotting signal was developed using an enhanced chemiluminescence (ECL) detection kit (PerkinElmer, Waltham, MA, USA) and was counted by the software Quantity One (Bio-Rad, Hercules, CA, USA). […]"}, "DENV [2]": {"tested_on": "DENV", "test": "Exogenous COX-2 (pCMV-COX-2-Myc) overexpression rescue of DENV replication in Huh-7 cells", "assay_type": "cell-based, dengue virus", "settings": "1 μM; pCMV-COX-2-Myc transfected Huh-7 cells", "procedure": "(§1) In a previous study, Lin et al. reported that induction of COX-2 could suppress DENV replication. To determine whether compound 19a had impact on COX-2 protein and mRNA expression in Huh-7 cells, we treated Huh-7 cells with 0.5 to 5 μM of 19a. […] To characterize whether the 19a-mediated downregulation of COX-2 expression and its catalytic activity was involved in the suppression of DENV replication, we overexpressed exogenous COX-2 to evaluate the inhibitory activity of 19a on DENV replication. […] Consistently, the exogenous expression of COX-2 attenuated the inhibitory effect of 19a on the non-structural 2B (NS2B) protein levels, as analyzed by Western blotting.\nHuh-7-DV-Fluc cells were seeded in 24-well plates at a density of 2 × 10^4 cells per well, and treated with the 3-arylquinoxaline compounds at two concentrations (1 and 10 μM) or 0.1% DMSO as control. […] After three days, protein and RNA levels were analyzed by Western blotting with a specific antibody as previously described respectively.\n(§2) Figure 4 Inhibitory effect of 19a on DENV-induced cyclooxygenase-2 (COX-2) expression in Huh-7 cells. […] The results are expressed as the means ± standard deviations (SD) of triplicate experiments."}, "COX-2 promoter": {"tested_on": "COX-2 promoter", "test": "COX-2 promoter-based reporter assay (pCOX-2-Luc) in DENV-infected Huh-7 cells", "assay_type": "cell-based, Human", "settings": "increasing concentrations, three days", "procedure": "We also used a COX-2 promoter-based reporter assay to evaluate the inhibitory effect of 19a on COX-2 at the transcriptional level. The pCOX-2-Luc, a plasmid encoding firefly luciferase under the control of the COX-2 promoter, was transfected into Huh-7 cells or DENV-infected Huh-7 cells and, then, these plasmid-transfected cells were incubated with 19a at increasing concentrations for three days.\nHuh-7-DV-Fluc cells were seeded in 24-well plates at a density of 2 × 10^4 cells per well, and treated with the 3-arylquinoxaline compounds at two concentrations (1 and 10 μM) or 0.1% DMSO as control. After three days of incubation, the luciferase activity assay was performed using the Bright-Glo Luciferase assay system (Promega, Madison, WI, USA) according to the manufacturer’s instructions. […] After three days, protein and RNA levels were analyzed by Western blotting with a specific antibody as previously described respectively.\nas §2"}, "COX-2 expression": {"tested_on": "COX-2 expression", "test": "COX-2 protein and mRNA expression in Huh-7 cells (Western blotting, RT-qPCR)", "assay_type": "cell-based, Human", "settings": "0.5 to 5 μM, vs DMSO", "procedure": "as §1\nHuh-7 cells were seeded in 24-well plates at a density of 5 × 10^4 cells per well overnight and treated with indicated reagent at proper concentrations for three days. […] The protein concentration was determined by the Bradford method. […] The blotting signal was developed using an enhanced chemiluminescence (ECL) detection kit (PerkinElmer, Waltham, MA, USA) and was counted by the software Quantity One (Bio-Rad, Hercules, CA, USA). […]\nas §2"}}}
{"smiles": "COc1ccc(-c2nc3ccccc3nc2C(O)c2ccccc2)cc1", "note": "(stereo not shown) [Compound 19a, [3-(4-Methoxyphenyl)quinoxalin-2-yl](phenyl)methanol]", "values": [{"measurement": "DENV2 % Inhibition at 10 μM", "setting": "DENV2; 10 μM, Huh-7-DV-Fluc cells, three days, mean ± SD", "result": "82.71 ± 2.88", "unit": "%"}, {"measurement": "SI (selectivity index, CC50/EC50)", "setting": "DENV2; CC50 Huh-7 / EC50 DENV", "result": ">155.04"}, {"measurement": "inhibition at 1 µM", "setting": "DENV2; Dengue virus, DENV2, 72 h, 1 μM, Huh-7-DV-Fluc cells, three days, mean ± SD", "result": "36.7 ± 3.71", "unit": "%"}, {"measurement": "EC50", "setting": "DENV2; Dengue virus, DENV2, DENV replication, mean ± SD, read-out: EC50 (concentration resulting in a 50% inhibition in virus production)", "result": "1.29 ± 0.74", "unit": "µM"}, {"measurement": "fold more anti-DENV activity than ribavirin", "setting": "DENV2; EC50 compared with ribavirin", "result": "approximately 10 fold"}, {"measurement": "DENV protein synthesis (Western blotting)", "setting": "DENV [1]", "result": "dose-dependently reduced"}, {"measurement": "viral RNA level reduced by compound upon increasing exogenous COX-2-Myc expression", "setting": "DENV [2]", "result": "gradually rescued"}, {"measurement": "DENV-elevated COX-2 promoter activity", "setting": "COX-2 promoter", "result": "dose-dependently decreased"}, {"measurement": "COX-2 mRNA level", "setting": "COX-2 expression", "result": "could inhibit"}, {"measurement": "COX-2 protein level", "setting": "COX-2 expression", "result": "could inhibit"}]}
